Measurements reported in paper PMC8151892, “Partial Agonist Activity of Neonicotinoids on Rat Nicotinic Receptors: Consequences over Epinephrine Secretion and In Vivo Blood Pressure” (International Journal of Molecular Sciences, 2021).

Target: T1, α3β4 nicotinic acetylcholine receptor (α3 subunit) (Rattus norvegicus, UniProt P04757+P12392)
T1 construct: gene Chrna3; complete open reading frames of rat α3 and β4 subunits, RNA 1:1, Xenopus oocytes; with nAChR β4 subunit (Chrnb4)
Experiment: two-electrode voltage clamp in Xenopus oocytes (partial agonist)
Assay type: cell-based

T1 sequence (P04757 26-499): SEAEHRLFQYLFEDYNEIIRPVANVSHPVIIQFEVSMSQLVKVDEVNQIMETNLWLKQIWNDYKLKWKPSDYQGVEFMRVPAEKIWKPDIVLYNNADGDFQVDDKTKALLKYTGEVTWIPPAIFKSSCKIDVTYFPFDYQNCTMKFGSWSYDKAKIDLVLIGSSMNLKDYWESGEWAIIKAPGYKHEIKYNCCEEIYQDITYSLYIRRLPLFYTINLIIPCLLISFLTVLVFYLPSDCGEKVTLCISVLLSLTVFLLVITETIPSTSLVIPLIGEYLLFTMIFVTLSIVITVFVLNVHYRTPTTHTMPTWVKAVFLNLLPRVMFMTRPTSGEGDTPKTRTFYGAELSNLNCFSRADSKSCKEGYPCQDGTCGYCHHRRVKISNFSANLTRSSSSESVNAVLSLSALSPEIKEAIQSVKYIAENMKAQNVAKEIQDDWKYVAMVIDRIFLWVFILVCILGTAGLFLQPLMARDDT
T1 sequence (P12392 21-495): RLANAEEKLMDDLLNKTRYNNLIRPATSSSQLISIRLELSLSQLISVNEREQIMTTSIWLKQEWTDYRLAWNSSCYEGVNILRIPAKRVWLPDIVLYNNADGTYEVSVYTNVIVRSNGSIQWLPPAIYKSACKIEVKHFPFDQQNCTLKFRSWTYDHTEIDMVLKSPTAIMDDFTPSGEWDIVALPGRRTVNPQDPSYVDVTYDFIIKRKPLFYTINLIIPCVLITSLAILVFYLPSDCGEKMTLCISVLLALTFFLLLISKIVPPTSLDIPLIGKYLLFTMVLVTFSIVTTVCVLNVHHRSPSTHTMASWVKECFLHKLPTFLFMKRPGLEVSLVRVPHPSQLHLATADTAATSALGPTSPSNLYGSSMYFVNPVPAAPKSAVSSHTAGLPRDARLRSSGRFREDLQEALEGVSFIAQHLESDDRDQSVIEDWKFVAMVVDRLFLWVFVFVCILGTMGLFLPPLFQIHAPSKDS

## CN/C(=N\[N+](=O)[O-])NCc1cnc(Cl)s1 [CLO, clothianidin]
  EC50: 8.39 ± 0.77 mM
